Data set [1] can be described thus: Solubility of the peptides in pH 7.4 buffer and in H2O. The format is physicochemical. As for the experimental part:
(§1) Following the standard solid phase methodology described above in Example 1, additional inhibitory peptides of the present invention were prepared. The peptides prepared are set out in the following table. Satisfactory amino acid analyses were obtained by Spinco method for each listed peptide. Also included in the table is solubility data of three types from which the improved solubility characteristics of the peptides of the present invention may be judged.

The nature of the next data set: Partition coefficient. The format is physicochemical. As for the experimental part: as §1
The target of a further data set is T1, human kidney renin (Homo sapiens, UniProt P00797).
T1 construct: human kidney renin purified as described in Bangham; from tissue; host or cells: human kidney
T1 sequence (P00797 67-406): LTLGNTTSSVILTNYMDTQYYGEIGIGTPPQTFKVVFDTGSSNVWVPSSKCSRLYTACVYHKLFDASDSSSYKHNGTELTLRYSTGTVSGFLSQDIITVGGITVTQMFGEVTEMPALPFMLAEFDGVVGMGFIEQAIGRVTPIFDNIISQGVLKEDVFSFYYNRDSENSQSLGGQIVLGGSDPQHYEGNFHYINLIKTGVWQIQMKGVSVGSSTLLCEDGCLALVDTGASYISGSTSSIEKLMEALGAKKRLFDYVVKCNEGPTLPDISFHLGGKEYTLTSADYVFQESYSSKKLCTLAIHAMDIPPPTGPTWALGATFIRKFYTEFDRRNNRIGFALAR
The experiment in a line: Inhibition of purified human kidney renin. In kind it is biochemical. To be noted: dissociation constant of the inhibited enzyme-inhibitor complex. How it is done:
(§2) Assays were carried out in order to determine the inhibitory potency of the peptides of the present invention. […] Another assay measured the inhibition of human kidney renin purified as described in Bangham, D. R., Robertson, I., Robinson, J. I. S., Robinson, C. J., and Tree, M., Clinical Science and Molecular Medicine, 48 (Supp. 2): 136s-159s (1975), and further purified by affinity chromatography on pepstatin-aminohexyl-Sepharase described in Poe, M., Wu., J. K., Florance, J. R., Radkey, J. A., Bennet, C. D., and Hoogsteen, K., J. Biol. Chem. 258:2209-2216 (1983). The assay was also in accordance with Poe et al. cited above. Further assays measured human plasma renin and dog plasma renin in accordance with procedures described in Biger et al, Nature, 303:81-84 (1983).
The results expressed as KI values refer to the dissociation constant of the inhibited enzyme-inhibitor complex. This KI value was obtained as described above.

For the next data set, the target named is T2, human plasma renin (Homo sapiens, UniProt P00797).
T2 construct: Further assays measured human plasma renin and dog plasma renin; from tissue; host or cells: human plasma
T2 sequence (P00797 67-406): T1 sequence (P00797 67-406)
The experiment in a line: Inhibition of human plasma renin. In kind it is biochemical. As for the experimental part:
as §2

A further data set deals with T3, dog plasma renin (Canis lupus familiaris, UniProt Q6DYE7).
T3 construct: Further assays measured human plasma renin and dog plasma renin; from tissue; host or cells: dog plasma
T3 sequence (Q6DYE7 66-403): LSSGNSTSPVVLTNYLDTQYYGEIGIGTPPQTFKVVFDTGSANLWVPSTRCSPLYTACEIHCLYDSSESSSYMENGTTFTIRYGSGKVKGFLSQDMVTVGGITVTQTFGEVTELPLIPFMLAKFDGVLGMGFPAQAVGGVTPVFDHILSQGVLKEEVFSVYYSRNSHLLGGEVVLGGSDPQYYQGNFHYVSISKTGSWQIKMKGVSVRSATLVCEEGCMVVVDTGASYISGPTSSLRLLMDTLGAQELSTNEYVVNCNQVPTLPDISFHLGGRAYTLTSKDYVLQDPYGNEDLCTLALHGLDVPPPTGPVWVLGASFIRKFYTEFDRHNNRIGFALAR
The experiment in a line: Inhibition of dog plasma renin. The format is biochemical. As to conditions: for Dog Plasma, % inhibition at 1000: at 1000 .eta.M. How it is done: as §2

The next data set has as its system nephrectomized rats. As to conditions: after the injection of hog renin into nephrectomized rats; cited from earlier work.
Where [2] appears, read: pH 7.4, aqueous buffer, pH 7.4 Buffer mg/ml (solubility).
The mark [3] stands for this setting: water, H2O, read-out: H2O mg/ml (solubility).

pIC50, pKi: −log10 of the molar value. ≈ marks a conversion by molar mass, not a printed value. Read-outs that look alike come from different tables or passages of the source. *1 amine or outer side, *2 acyl side, *3 side chain or, on linkers, in order; H or OH if unused. Where a SMILES comes first, the peptide text is derived from it. [ ]: non-standard residue; d: D form. The star is where a group is joined. ξ: configuration not given here. NH(3-guanidinomethylbenzyl) = NC(N)=NCc1cccc(CN*)c1; NH(3-OCH2COOH-benzyl) = O=C(O)COc1cccc(CN*)c1; X1 = NCc1cccc(CC(N[*:1])C(=O)[*:2])c1; Sta = CC(C)C[C@H](N)[C@@H](O)CC(=O)O; NHCH2CH2SO3H = O=S(=O)(O)CCN*; X4 = NC(Cc1cccc(CN*)c1)C(=O)O; X3 = [O-][n+]1ccc(CN*)cc1; ξPhg = NC(C(=O)O)c1ccccc1; Boc = CC(C)(C)OC(=O)*; X2 = NC(CN*)c1ccccn1

The values below come from US4636491A, “Renin inhibitory peptides having improved solubility” (Merck & Co., Inc., priority 1984, dated 1987).

Broadly, the pKi is the Ki on a negative log10 scale, so that one unit is a factor of ten. A lower pKi goes with a high Ki.

Regarding `CC(C)C[C@H](NC(=O)C[C@H](O)[C@H](CC(C)C)NC(=O)[C@H](Cc1c[nH]cn1)NC(=O)[C@H](Cc1ccccc1)NC(=O)OC(C)(C)C)C(=O)NC(Cc1cccc(CN)c1)C(=O)O` (stereo partly shown) [Example 4] (Boc-FH[Sta]L[X1]-OH), the solubility in data set [1] (setting [2]) came out at 1.3 mg/mL (≈ 1530 µM); in data set [1] (water, H2O mg/ml (solubility)), 0.33 mg/mL (≈ 389 µM). Also, in “Partition coefficient”, the “Partition Coefficient” value was 68.2. This compound also had a pKi on human kidney renin of 8.31.
Consider `CC(C)C[C@H](NC(=O)C[C@H](O)[C@H](CC(C)C)NC(=O)[C@H](Cc1c[nH]cn1)NC(=O)[C@H](Cc1ccccc1)NC(=O)OC(C)(C)C)C(=O)NCc1cccc(CC(N)C(=O)O)c1` (stereo partly drawn) [Example 6] (Boc-FH[Sta]L-X4), for which the pKi at human kidney renin is 7.92. The “Human Plasma, % inhibition at (concentration not given)” value on human plasma renin is given as 15%. Moreover, at dog plasma renin (read-out: Dog Plasma I50), the pIC50 is 6.92.
pepstatin: in the data set on nephrectomized rats, the “blood pressure in vivo” value was “reduce blood pressure”.
Consider `CC(C)C[C@H](NC(=O)C[C@H](O)[C@H](CC(C)C)NC(=O)[C@H](Cc1c[nH]cn1)NC(=O)[C@H](Cc1ccccc1)NC(=O)OC(C)(C)C)C(=O)NCCC(N)C(=O)O` (single isomer, unassigned) [Example 5 (Isomer A)], for which, in data set [1] (setting [3]), the solubility stood at 1.72 mg/mL (≈ 2230 µM). For the same compound, the “Partition Coefficient” value in the data set “Partition coefficient” came out at 2.1. The pKi on human kidney renin is 8.62. For the same compound, the “Human Plasma, % inhibition at 1000” value at human plasma renin (at 1000 .eta.M) was 25%. Also, the “Dog Plasma, % inhibition at 1000” value on dog plasma renin (listed as 5 A) was determined as 15%.
For the compound `CC(C)C[C@H](NC(=O)C[C@H](O)[C@H](CC(C)C)NC(=O)[C@H](Cc1c[nH]cn1)NC(=O)[C@H](Cc1ccccc1)NC(=O)OC(C)(C)C)C(=O)NCC(N)c1ccccn1` (stereo partly drawn) [Example 2] (Boc-FH[Sta]L-X2), the solubility in data set [1] (setting [2]) amounted to 0.32 mg/mL (≈ 404 µM); in data set [1] (water, H2O mg/ml (solubility)), 0.71 mg/mL (≈ 896 µM). Also, the “Partition Coefficient” value in the data set “Partition coefficient” is “infinity”.
The matching figures for `CC(C)C[C@H](NC(=O)C[C@H](O)[C@H](CC(C)C)NC(=O)[C@H](Cc1c[nH]cn1)NC(=O)[C@H](Cc1ccccc1)NC(=O)OC(C)(C)C)C(=O)NCc1cccc(CN=C(N)N)c1` [Example 3] (Boc-FH[Sta]L-{NH(3-guanidinomethylbenzyl)}): 0.77 mg/mL (≈ 924 µM), 2.46 mg/mL (≈ 2950 µM) and 10.6.
In the case of `CC(C)C[C@H](NC(=O)C[C@H](O)[C@H](CC(C)C)NC(=O)[C@H](Cc1c[nH]cn1)NC(=O)[C@H](Cc1ccccc1)NC(=O)OC(C)(C)C)C(=O)NC(C(=O)O)c1ccccc1` (stereo partly shown) [Example 8] (Boc-FH[Sta]L[ξPhg]-OH), the solubility stood at 1.8 mg/mL (≈ 2230 µM) in data set [1] (pH 7.4 buffer, pH 7.4, aqueous buffer, pH 7.4 buffer, read-out: pH 7.4 Buffer mg/ml (solubility)) and 0.6 mg/mL (≈ 744 µM) in data set [1] (setting [3]). For the same compound, the “Partition Coefficient” value in the data set “Partition coefficient” was 16.5. In addition, the pKi at human kidney renin is 6.00. Also, at human plasma renin, the “Human Plasma, % inhibition at (concentration not given)” value was found to be 44%. Besides, the “Dog Plasma, % inhibition at 1000” value at dog plasma renin stood at 45%.
In the case of `CC(C)C[C@H](NC(=O)C[C@H](O)[C@H](CC(C)C)NC(=O)[C@H](Cc1c[nH]cn1)NC(=O)[C@H](Cc1ccccc1)NC(=O)OC(C)(C)C)C(=O)NCCS(=O)(=O)O` [Example 10] (Boc-FH[Sta]L-NHCH2CH2SO3H), the solubility in data set [1] (setting [2]) is > 9 mg/mL; in data set [1] (water, H2O mg/ml (solubility)) it was > 9 mg/mL. Moreover, the “Partition Coefficient” value in the data set “Partition coefficient” is on record as 4.34.
In the case of `CC(C)C[C@H](NC(=O)C[C@H](O)[C@H](CC(C)C)NC(=O)[C@H](Cc1c[nH]cn1)NC(=O)[C@H](Cc1ccccc1)NC(=O)OC(C)(C)C)C(=O)NCCC(N)C(=O)O` (single isomer, unassigned) [Example 5 (Isomer B)], the “Partition Coefficient” value in “Partition coefficient” is 10.7. At human kidney renin, this compound had a pKi of 5.66. Moreover, the “Human Plasma, % inhibition at (concentration not given)” value at human plasma renin is given as 0%. For the same compound, the “Dog Plasma, % inhibition at 1000” value on dog plasma renin (listed as 5 B) worked out at 22%.
Consider `CC(C)C[C@H](NC(=O)C[C@H](O)[C@H](CC(C)C)NC(=O)[C@H](Cc1c[nH]cn1)NC(=O)[C@H](Cc1ccccc1)NC(=O)OC(C)(C)C)C(=O)NCc1cc[n+]([O-])cc1` [Example 7] (Boc-FH[Sta]L-X3), for which the solubility in data set [1] (setting [2]) stood at 3.3 mg/mL (≈ 4240 µM); in data set [1] (water, H2O mg/ml (solubility)), 5.1 mg/mL (≈ 6550 µM).
In the case of `CC(C)C[C@H](NC(=O)C[C@H](O)[C@H](CC(C)C)NC(=O)[C@H](Cc1c[nH]cn1)NC(=O)[C@H](Cc1ccccc1)NC(=O)OC(C)(C)C)C(=O)NCc1cccc(OCC(=O)O)c1` [Example 9] (Boc-FH[Sta]L-{NH(3-OCH2COOH-benzyl)}), the solubility in data set [1] (setting [2]) was 1.5 mg/mL (≈ 1790 µM); in data set [1] (water, H2O mg/ml (solubility)) it was 0.23 mg/mL (≈ 275 µM). In the data set “Partition coefficient”, the “Partition Coefficient” value is “infinity”.
